Results on one molecule are retold here after US10709724B2, “Methods of treating mitochondrial dysfunction” (Ecole Polytechnique Federale de Lausanne (EPFL), priority 2011, dated 2020).

Values joined by “and” are separate entries in the source; they are usually repeats but may differ in a detail not shown here. Equal entries are not always repeated. “Also recorded” adds a separate entry of the source.

Assay [1] relates to C. elegans. As to the kind of experiment: Confocal microscopy of mitochondria in body wall muscle (pmyo-3::mito::GFP reporter). The conditions noted are these: in vivo. On the procedure: Confocal Microscopy and Image Processing Worms were immobilized with 6 mM solution of tetramisole hydrochloride (Sigma, Buchs, Switzerland) in M9 and mounted on 6% agarose pads on glass slides. Images of worms were acquired using Zeiss LSM 700 Upright confocal microscope (Carl Zeiss AG, Oberkochen, Germany) under non-saturating exposure conditions. All the snapshots were taken from the same part of C. elegans: muscles from the upper part of the worm, excluding the regions of oesophagus and vulva. For each condition multiple worms were observed and imaged. Image processing was performed with the Fiji software. One of the critical issues during the imaging process was the position of the worm, as it influences the level of background. For the uniformity of the represented images, contrast and brightness were adjusted in order, to eliminate the undesirable background signal. Neither of these manipulations was affecting the mitochondrial shape. Tracing of the mitochondrial network contour was done by the use of Gaussian blur filter followed by the application of Laplacian operator.

The target in another assay is T1, GPR109A (Homo sapiens, UniProt Q8TDS4).
T1 construct: host or cells: Chem-4 cells (Ready-to-Assay GPR109A Nicotinic Acid Receptor Cells)
It is filed as cell-based. The conditions noted are these: GPR109A-expressing Chem-4 cells. Here is the method: GPR109A—Calcium Mobilization Assay. Ready-to-Assai™ GRP109A Nicotinic Acid Receptor Cells were used to measure calcium mobilization as specified by the manufacturer (Millipore). Calcium flux was determined using excitation at 340 and 380 nm in a fluorescence spectrophotometer (Victor X4, Perkin Elmer) in a 180 seconds time course, adding the ligand at 60 seconds. Internal validation was made using 0.1% Triton X-100 for total fluorophore release and 10 mM EGTA to chelate free calcium. Similarly, GPR109A specificity was internally validated using control cells devoid of GRP109A overexpression. Liver triglyceride measurement Liver triglycerides were measured from 20 mg of liver tissue using a variation of the Folch method, as described in Bai et al. (Bai et al., PARP-2 regulates SIRT1 expression and whole-body energy expenditure. (2011). Cell Metab 13, 450-460.

Assay [2] has as its system C. elegans. As to the kind of experiment: NAD measurement by HPLC in worms. The class given is in vivo. The conditions noted are these: day 4 of adulthood. Here is the method: Worm Respiration Assays Oxygen consumption was measured using the Seahorse XF24 equipment (Seahorse Bioscience Inc., North Billerica, Mass.) as described in Yamamoto et al. Typically, 200 animals per conditions were recovered from NGM plates with M9 medium, washed three times in 2 mLM9 to eliminate residual bacteria, and resuspended in 500 μL M9 medium. Worms were transferred in 24-well standard Seahorse plates (#100777-004) (50 worms per well) and oxygen consumption was measured 6 times. Respiration rates were normalized to the number of worms in each individual well. NAD measurement by HPLC For NAD+ quantification, approximately 1000 worms were collected in M9 buffer, washed five times to remove residual bacteria and flash-frozen in liquid nitrogen and stored at −80° C. until analysis. Extraction was started by adding 250 μl of 1.6M perchloric acid on frozen samples, followed by extensive homogenization in a Qiagen tissuelyser, and centrifugation at 20.000 g for 15 min. The supernatant was recovered and neutralized with a 3M potassium carbonate solution. […]

The subject of assay [3] is C. elegans. Briefly: Worm lifespan analysis. It is filed as in vivo. The conditions noted are these: for variation compared to control (%): vs N2 + water. Here is the method:
Worm Lifespan Analysis Lifespan tests were performed as described in Mouchiroud et al (L. Mouchiroud et al., Pyruvate imbalance mediates metabolic reprogramming and mimics lifespan extension by dietary restriction in Caenorhabditis elegans. Aging Cell 10, 39 (2011)). Briefly, 60-100 animals were used per conditions and scored every other day. All lifespan experiments were performed at 20° C. […] Animals were exposed to compounds during the full life from eggs until death. To ensure a permanent exposure to the compound, plates were changed twice a week. All the compounds used in this study were dissolved in a water stock solution.

Another assay relates to C2C12 myotubes. Briefly: NR uptake in C2C12 myotubes. The class given is in vitro ADME.

T1 sequence (Q8TDS4 whole entry): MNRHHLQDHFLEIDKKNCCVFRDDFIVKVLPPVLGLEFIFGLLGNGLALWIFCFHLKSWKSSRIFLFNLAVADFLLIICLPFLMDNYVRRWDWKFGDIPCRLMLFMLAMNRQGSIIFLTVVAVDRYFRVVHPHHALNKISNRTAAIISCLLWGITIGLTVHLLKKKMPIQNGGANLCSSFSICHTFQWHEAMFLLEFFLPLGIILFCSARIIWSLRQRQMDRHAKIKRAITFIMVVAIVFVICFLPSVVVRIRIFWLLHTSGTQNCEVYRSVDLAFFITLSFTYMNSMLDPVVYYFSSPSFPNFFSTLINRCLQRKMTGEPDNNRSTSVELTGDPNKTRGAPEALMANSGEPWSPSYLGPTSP

For orientation: Km means the substrate concentration at which the rate is half of its maximum. With `NC(=O)c1ccc[n+]([C@@H]2O[C@H](CO)[C@@H](O)[C@H]2O)c1` [NR, nicotinamide riboside], the “mitochondrial content in body wall muscle” value with C. elegans [1] is listed as “increase muscle mitochondrial content”. In addition, in the assay on C. elegans [1], the “mitochondrial morphology in body wall muscle” value is recorded as “affect mitochondrial morphology”. Further, the “GPR109A activation (calcium flux)” value at GPR109A is recorded as “did not activate GPR109A”. Besides, the “NAD+ levels in C. elegans” value in the assay on C. elegans [2] is on record as “increased NAD+ levels; also recorded: increases”. The “mean lifespan ± SE” value with C. elegans [3] (N2, 200 nM) was 21.1 ± 0.88 days; with C. elegans [3] (N2, 500 nM), 23.5 ± 0.56 days and 24.9 ± 0.68 days and 20.6 ± 1.02 days; with C. elegans [3] (N2, 1000 nM) it was 20.0 ± 0.89 days; in the assay on C. elegans [3] (daf-16(mu86), 500 nM) it was 19.1 ± 0.51 days; in the assay with C. elegans [3] (sir-2.1(ok434), 500 nM) it was 23.2 ± 0.61 days. Also, the “variation compared to control (%)” value is “+17.9%” in the assay on C. elegans [3] (N2, 200 nM); “+11.7%” in the assay on C. elegans [3] (N2, 1000 nM); −7.8% with C. elegans [3] (daf-16(mu86), 500 nM); “+12.0%” in the assay on C. elegans [3] (sir-2.1(ok434), 500 nM). For the same molecule, the “lifespan in daf-16 mutant worms” value in the assay on C. elegans [3] (daf-16(mu86) mutant worms) was “completely abolished; also recorded: daf-16-dependent”. In the assay with C. elegans [3] (sir-2.1(ok434) mutant worms), the “lifespan in sir-2.1(ok434) mutant / sir-2.1 dependence” value is reported as “sir-2.1-dependent fashion; also recorded: sir-2-dependent manner”. For the same molecule, the lifespan entry in the assay on C. elegans [3] (wild type N2 worms) is “extended lifespan; also recorded: increases”. Also, the Michaelis constant (Km) with C2C12 myotubes amounted to 172 ± 17.6 µM. Further, the “Vmax of NR uptake” value in the assay with C2C12 myotubes was 204.2±20.5 pmol/mg of protein/min.
